Reference: patent US20080249165A1, “Glycosides and Salts Thereof” (Ivax Drug Research Institute Ltd., priority 2004, published 2008)
Structures can show the parent of a compound that is named as a salt. Where two headings read alike, the source gives them in different places.

Experiments:
[1] = target: T1, IP-3 receptor (Rattus norvegicus, UniProt P29994); assay: IP-3 receptor antagonistic effect: inhibition of IP3 binding in rat cerebellum membrane preparations (Model 5)
T1 construct: from tissue; host or cells: rat cerebellum (microsomal membrane preparation)
T1 sequence (P29994 whole entry): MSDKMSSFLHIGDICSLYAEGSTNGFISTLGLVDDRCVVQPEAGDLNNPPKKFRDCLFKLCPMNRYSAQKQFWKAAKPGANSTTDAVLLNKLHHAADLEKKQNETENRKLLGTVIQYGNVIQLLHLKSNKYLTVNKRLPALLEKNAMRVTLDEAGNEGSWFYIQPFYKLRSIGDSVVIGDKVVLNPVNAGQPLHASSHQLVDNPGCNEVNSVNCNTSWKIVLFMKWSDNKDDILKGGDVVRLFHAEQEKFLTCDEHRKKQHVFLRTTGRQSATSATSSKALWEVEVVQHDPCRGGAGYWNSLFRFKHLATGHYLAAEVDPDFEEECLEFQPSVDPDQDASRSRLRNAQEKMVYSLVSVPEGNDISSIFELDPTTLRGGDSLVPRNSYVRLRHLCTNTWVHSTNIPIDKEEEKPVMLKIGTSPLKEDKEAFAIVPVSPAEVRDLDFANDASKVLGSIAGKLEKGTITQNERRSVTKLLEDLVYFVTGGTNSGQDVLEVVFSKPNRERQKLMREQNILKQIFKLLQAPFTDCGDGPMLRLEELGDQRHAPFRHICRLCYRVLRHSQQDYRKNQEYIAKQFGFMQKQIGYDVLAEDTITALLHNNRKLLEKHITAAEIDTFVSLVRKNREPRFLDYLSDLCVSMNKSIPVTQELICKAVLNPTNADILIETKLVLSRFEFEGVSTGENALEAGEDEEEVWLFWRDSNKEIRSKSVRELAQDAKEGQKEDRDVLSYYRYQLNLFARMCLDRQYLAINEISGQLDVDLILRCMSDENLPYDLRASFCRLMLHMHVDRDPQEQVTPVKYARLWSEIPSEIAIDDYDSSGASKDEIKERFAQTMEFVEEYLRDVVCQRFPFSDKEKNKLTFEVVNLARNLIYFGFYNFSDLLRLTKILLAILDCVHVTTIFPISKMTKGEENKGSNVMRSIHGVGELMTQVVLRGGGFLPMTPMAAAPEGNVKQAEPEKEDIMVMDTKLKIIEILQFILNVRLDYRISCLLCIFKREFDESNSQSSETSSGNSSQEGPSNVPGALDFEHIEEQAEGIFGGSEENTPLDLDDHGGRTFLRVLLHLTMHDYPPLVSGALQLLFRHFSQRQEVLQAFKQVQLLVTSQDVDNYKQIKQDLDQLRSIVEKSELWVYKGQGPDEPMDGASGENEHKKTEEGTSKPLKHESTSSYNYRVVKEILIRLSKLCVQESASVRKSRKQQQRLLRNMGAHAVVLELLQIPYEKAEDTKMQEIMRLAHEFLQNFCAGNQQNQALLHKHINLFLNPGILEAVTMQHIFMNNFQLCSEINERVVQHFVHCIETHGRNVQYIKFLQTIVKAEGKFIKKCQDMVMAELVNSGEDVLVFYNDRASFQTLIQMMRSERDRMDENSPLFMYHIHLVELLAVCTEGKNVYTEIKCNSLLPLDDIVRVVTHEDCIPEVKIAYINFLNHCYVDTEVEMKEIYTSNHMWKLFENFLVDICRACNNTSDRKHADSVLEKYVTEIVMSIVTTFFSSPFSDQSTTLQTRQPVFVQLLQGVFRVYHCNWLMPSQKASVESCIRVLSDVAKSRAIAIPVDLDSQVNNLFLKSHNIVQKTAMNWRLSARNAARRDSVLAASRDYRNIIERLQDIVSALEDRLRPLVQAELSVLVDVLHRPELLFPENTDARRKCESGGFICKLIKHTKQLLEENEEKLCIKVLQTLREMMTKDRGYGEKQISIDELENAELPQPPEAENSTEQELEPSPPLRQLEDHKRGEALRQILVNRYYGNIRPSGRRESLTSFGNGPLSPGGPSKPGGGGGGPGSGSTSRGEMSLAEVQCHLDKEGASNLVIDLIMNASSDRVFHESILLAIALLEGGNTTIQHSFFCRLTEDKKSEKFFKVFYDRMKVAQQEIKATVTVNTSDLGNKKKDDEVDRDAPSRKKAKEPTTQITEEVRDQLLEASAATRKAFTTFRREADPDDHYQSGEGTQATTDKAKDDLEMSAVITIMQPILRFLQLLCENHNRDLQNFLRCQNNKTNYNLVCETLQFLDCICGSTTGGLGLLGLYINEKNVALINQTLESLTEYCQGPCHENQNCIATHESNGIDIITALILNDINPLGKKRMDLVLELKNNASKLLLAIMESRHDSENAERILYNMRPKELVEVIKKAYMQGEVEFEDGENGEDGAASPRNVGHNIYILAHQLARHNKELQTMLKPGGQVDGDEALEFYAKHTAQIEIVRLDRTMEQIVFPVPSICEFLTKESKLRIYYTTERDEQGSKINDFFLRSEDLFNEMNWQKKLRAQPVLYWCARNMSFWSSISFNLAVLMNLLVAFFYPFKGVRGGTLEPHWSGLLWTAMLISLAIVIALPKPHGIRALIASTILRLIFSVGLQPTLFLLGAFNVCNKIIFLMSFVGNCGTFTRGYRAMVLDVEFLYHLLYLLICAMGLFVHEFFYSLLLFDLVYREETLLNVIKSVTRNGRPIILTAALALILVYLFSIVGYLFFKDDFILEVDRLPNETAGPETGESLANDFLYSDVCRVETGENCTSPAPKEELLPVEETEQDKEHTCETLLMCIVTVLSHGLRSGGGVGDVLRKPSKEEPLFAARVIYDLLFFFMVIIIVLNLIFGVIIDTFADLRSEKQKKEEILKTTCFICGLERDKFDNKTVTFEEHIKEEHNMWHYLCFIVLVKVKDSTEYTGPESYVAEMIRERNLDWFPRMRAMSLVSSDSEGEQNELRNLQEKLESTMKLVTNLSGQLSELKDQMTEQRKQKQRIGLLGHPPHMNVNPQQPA
Experimental: The polysulfated glycosides of the present invention, depending on their chemical structure, inhibit the binding of inositol-1,4,5-trisphosphate (IP3) to its receptor in microsomal membrane preparations. As IP3 is a messenger molecule playing distinguished role in the activation of different cells, interfering with this function can explain the anti-asthmatic effect of these polysulfated glycosides. The IP3 antagonist effect of the polysulfated glycosides was determined using rat cerebellum membrane preparations according to Worley et al. (JBC 262, 12132, 1987).

[2] = test system: BN rats; assay: Extent of perivascular oedema developed in asthmatic lung tissue (Model 3); type: in vivo, rat; details: for Oedema* area of oedema relative to area of vasculature (average ± SEM): lungs 48 hours after challenge
Experimental: Sensitized BN rats were treated intratracheally with varying (0.001-1.0 mg/kg) dose of compound described in the first example, two hours before antigenic challenge, using a similar protocol described in Model 1. Lungs were collected 48 hours after challenge and were fixed in 8% phosphate buffered formaldehyde. Samples were then processed for histochemistry routinely. 5 μm thick sections were stained with periodic-acid-Schiff (PAS) reagents and were counterstained with haematoxylin-eosine. On the sections the area of the connective tissue around the vasculare was determined and expressed as a ratio of the area of the corresponding blood vessel itself.

[3] = test system: BN rats; assay: Allergen stimulated mucus production of airways epithelial cells (Model 2); type: in vivo, rat; details: for number of PAS(+) cells as percent of total number of cells (average ± SEM): lungs 48 hours after challenge
Experimental: Sensitized BN rats were treated intratracheally with varying (0.001-1.0 mg/kg) dose of compound described in the first example, two hours before antigenic challenge, using a similar protocol described in Model 1. Lungs were collected 48 hours after challenge and were fixed in 8% phosphate buffered formaldehyde. Samples were then processed for histochemistry routinely. 5 μm thick sections were stained with periodic-acid-Schiff (PAS) reagents and were counterstained with haematoxylin-eosine. On the sections each epithelial cells of the airways were counted in the whole preparation at a magnification of 400×. The number of PAS(+) [mucus producing] epithelial cells was expressed as the ratio of the total number of epithelial cells.

[4] = test system: BN-rats; assay: Airways' hyper-responsiveness ex vivo: tracheal contraction to acetylcholine after antigen challenge and intratracheal pretreatment (Model 1); type: in vivo, rat; details: for MAX** Contraction at maximal Ach concentration relative to control (mean ± SEM) / ED50* log M acetylcholine (Ach), causing 50% contraction relative to control (mean ± SEM): trachea 48 h post challenge; for ED50* log M acetylcholine (Ach), causing 50% contraction relative to control (mean ± SEM): sensitized BN rats
Experimental: Brown Norway (BN) rats were actively sensitized to ovalbumin (OA) by a subcutaneous injection of 0.5 ml of OA/Al(OH)3 gel mixture (2 mg OA+10 g Al(OH)3/100 ml saline) on day 1 with subsequent subcutaneous injections (10 mg OA+10 g Al(OH)3/100 ml saline) given on days 14 and 21. On day 28, animals received the compound described in the first example intratracheally (0.001; 0.01; 0.1 or 1.0 mg/kg dose) 2 hours before antigen challenge. Antigen challenge was performed by inhalation of nebulised ovalbumin (1% antigen solution administered in a TSE inhalation system for 1 hour). Animals were sacrificed 48 hours post antigen challenge wherein the tracheas were removed to an organ bath. Dissected tracheas were allowed to equilibrate for 30 minutes before measuring tracheal spasmogenic response curves to acetylcholine (Ach).

[5] = test system: BN rats; assay: Extent of peribronchial eosinophilia developed in asthmatic lung tissue (Model 4); type: in vivo, rat; details: for peribronchial eosinophil number per visual field (average ± SEM): lungs 48 hours after challenge
Experimental: Sensitized BN rats were treated intratracheally with varying (0.001-1.0 mg/kg) dose of compound described in the first example, two hours before antigenic challenge, using a similar protocol described in Model 1. Lungs were collected 48 hours after challenge and were fixed in 8% phosphate buffered formaldehyde. Samples were then processed for histochemistry routinely. 5 μm thick sections were stained with May Gruenvald Giemsa and the number of eosinophils, situated peribronchially, was determined.

[6] = read-out: IC50 (μg/ml) Average ± SEM (n) (converted)
[7] = 0.001 mg/kg intratracheally two hours before antigenic challenge
[8] = 0.1 mg/kg intratracheally two hours before antigenic challenge
[9] = 0.001 mg/kg intratracheally 2 hours before antigen challenge
[10] = 0.1 mg/kg intratracheally 2 hours before antigen challenge

SMILES	IC50 ([1]; read-out: Average IC50)	IC50 [1, 6]	also measured
O=S(=O)(O)OC[C@H]1O[C@@H](O[C@H]2[C@H](OS(=O)(=O)O)[C@@H](COS(=O)(=O)O)O[C@@H]2COS(=O)(=O)O)[C@H](OS(=O)(=O)O)[C@@H](OS(=O)(=O)O)[C@@H]1OS(=O)(=O)O [Example 3, 2,5-Anhydro-1,4,6-tri-O-sulfato-3-O-(2,3,4,6-tetra-O-sulfato-β-D-glucopyranosyl)-D-mannitol hepta sodium salt]	1.39 µM	1.21 µM	–
O=S(=O)(O)OC[C@H]1O[C@@H](OC[C@H]2O[C@H](CO[C@@H]3O[C@H](COS(=O)(=O)O)[C@@H](OS(=O)(=O)O)[C@H](OS(=O)(=O)O)[C@H]3OS(=O)(=O)O)[C@@H](OS(=O)(=O)O)[C@@H]2O[C@@H]2O[C@H](COS(=O)(=O)O)[C@@H](OS(=O)(=O)O)[C@H](OS(=O)(=O)O)[C@H]2OS(=O)(=O)O)[C@H](OS(=O)(=O)O)[C@@H](OS(=O)(=O)O)[C@@H]1OS(=O)(=O)O [Example 10, 2,5-Anhydro-4-O-sulfato-1,3,6-tris-O-(2,3,4,6-tetra-O-sulfato-β-D-glucopyranosyl)-D-mannitol trideca potassium salt]	0.137 µM	0.177 µM	–
O=S(=O)(O)OC[C@H]1O[C@@H](OC[C@H]2O[C@@H](O[C@H]3[C@H](OS(=O)(=O)O)[C@@H](COS(=O)(=O)O)O[C@@H]3COS(=O)(=O)O)[C@H](OS(=O)(=O)O)[C@@H](OS(=O)(=O)O)[C@@H]2OS(=O)(=O)O)[C@H](OS(=O)(=O)O)[C@@H](OS(=O)(=O)O)[C@@H]1OS(=O)(=O)O [Example 7, 2,5-Anhydro-1,4,6-tri-O-sulfato-3-O-[6-O-(2,3,4,6-tetra-O-sulfato-β-D-glucopyranosido)-2,3,4-tetra-O-sulfato-β-D-glucopyranosyl]-D-mannitol deca potassium salt]	0.24 µM	0.31 µM	–
O=S(=O)(O)OC[C@H]1O[C@@H](O[C@H]2[C@H](OS(=O)(=O)O)[C@@H](COS(=O)(=O)O)O[C@@H]2COS(=O)(=O)O)[C@H](OS(=O)(=O)O)[C@@H](OS(=O)(=O)O)[C@@H]1O[C@H]1O[C@H](COS(=O)(=O)O)[C@@H](OS(=O)(=O)O)[C@H](OS(=O)(=O)O)[C@H]1OS(=O)(=O)O [Example 6, 2,5-Anhydro-1,4,6-tri-O-sulfato-3-O-(2,3,6,2′,3′,4′,6′-hepta-O-sulfato-β-D-maltosyl)-D-mannitol deca potassium salt]	0.222 µM	0.287 µM	–
O=S(=O)(O)OC[C@H]1O[C@H](COS(=O)(=O)O)[C@@H](OS(=O)(=O)O)[C@@H]1O[C@H]1OC[C@@H](OS(=O)(=O)O)[C@@H](OS(=O)(=O)O)[C@@H]1OS(=O)(=O)O [Example 5, 2,5-Anhydro-1,4,6-tri-O-sulfato-3-O-(2,3,4-tri-O-sulfato-α-D-arabinopyranosyl)-D-mannitol hexa potassium salt]	26.5 µM	34.3 µM	–
O=S(=O)(O)OC[C@H]1O[C@H](COS(=O)(=O)O)[C@@H](OS(=O)(=O)O)[C@@H]1O[C@@H]1OC[C@H](OS(=O)(=O)O)[C@H](OS(=O)(=O)O)[C@H]1OS(=O)(=O)O [Example 4, 2,5-Anhydro-1,4,6-tri-O-sulfato-3-O-(2,3,4-tri-O-sulfato-α-L-arabinopyranosyl)-D-mannitol hexa potassium salt]	20.3 µM	26.3 µM	–
O=S(=O)(O)OC[C@H]1O[C@@H](OC[C@H]2O[C@H](CO[C@@H]3O[C@H](COS(=O)(=O)O)[C@@H](OS(=O)(=O)O)[C@H](OS(=O)(=O)O)[C@H]3OS(=O)(=O)O)[C@@H](OS(=O)(=O)O)[C@@H]2OS(=O)(=O)O)[C@H](OS(=O)(=O)O)[C@@H](OS(=O)(=O)O)[C@@H]1OS(=O)(=O)O [Example 8, 2,5-Anhydro-3,4-di-O-sulfato-1,6-bis-O-(2,3,4,6-tetra-O-sulfato-β-D-glucopyranosyl)-D-mannitol deca potassium salt]	0.539 µM	0.698 µM	–
O=S(=O)(O)OCC1OC(OCC2OC(OCC3OC(COC4OC(COC5OC(COS(=O)(=O)O)C(OS(=O)(=O)O)C(OS(=O)(=O)O)C5OS(=O)(=O)O)C(OS(=O)(=O)O)C(OS(=O)(=O)O)C4OS(=O)(=O)O)C(OS(=O)(=O)O)C3OS(=O)(=O)O)C(OS(=O)(=O)O)C(OS(=O)(=O)O)C2OS(=O)(=O)O)C(OS(=O)(=O)O)C(OS(=O)(=O)O)C1OS(=O)(=O)O [Example 9, 2,5-Anhydro-3,4-di-O-sulfato-1,6-bis-[(6-O-2,3,4,6-tetra-O-sulfato-β-D-glucopyranosido)-2,3,4-tri-O-sulfato-β-D-glucopyranosyl]-D-mannitol hexadeca potassium salt]	0.115 µM	0.148 µM	–
O=S(=O)(O)OCC1OC(COS(=O)(=O)O)C(OS(=O)(=O)O)C1OC1OC(COS(=O)(=O)O)C(OS(=O)(=O)O)C(OS(=O)(=O)O)C1OS(=O)(=O)O [Example 1, 2,5-Anhydro-1,4,6-tri-O-sulfato-3-O-(2,3,4,6-tetra-O-sulfato-α-L-idopyranosyl)-D-mannitol hepta sodium salt]	1.49 µM	1.75 µM	Oedema* area of oedema relative to area of vasculature (average ± SEM) [2, 7]: 41 ± 6; Oedema* area of oedema relative to area of vasculature (average ± SEM) [2, 8]: 53 ± 6; extent of aedema around the vasculature (in words) ([2]; smallest dose): significantly decreased; number of PAS(+) cells as percent of total number of cells (average ± SEM) [3, 7]: 35.2 ± 3.5%; number of PAS(+) cells as percent of total number of cells (average ± SEM) [3, 8]: 17.5 ± 2.4%; number of PAS(+), mucus producing cells (in words) ([3]; dose of 0.1 mg/kg): significantly decreased; MAX** Contraction at maximal Ach concentration relative to control (mean ± SEM) [4, 9]: 166 ± 41; ED50* log M acetylcholine (Ach), causing 50% contraction relative to control (mean ± SEM) [4, 9]: 5.78 ± 0.30 log M; MAX** Contraction at maximal Ach concentration relative to control (mean ± SEM) [4, 10]: 99 ± 16; ED50* log M acetylcholine (Ach), causing 50% contraction relative to control (mean ± SEM) [4, 10]: 4.70 ± 0.37 log M; tracheal hyper-reactivity to acetylcholine after ovalbumin challenge (in words) ([4]; dose of 0.1 mg/kg, 48 h after antigen challenge): brought this elevation back to control level; peribronchial eosinophil number per visual field (average ± SEM) [5, 7]: 74 ± 2; peribronchial eosinophil number per visual field (average ± SEM) [5, 8]: 25 ± 2; number of peribronchially situated eosinophils in the lung (in words) ([5]; higher doses): the decrease become statistically significant; number of peribronchially situated eosinophils in the lung (in words) ([5]; smallest dose): decreases the extent of it
O=S(=O)(O)OCC1OC(COS(=O)(=O)O)C(OS(=O)(=O)O)C1OC1OC(COS(=O)(=O)O)C(OS(=O)(=O)O)C(OS(=O)(=O)O)C1OS(=O)(=O)O [Example 2, 2,5-Anhydro-1,4,6-tri-O-sulfato-3-O-(2,3,4,6-tetra-O-sulfato-α-L-idopyranosyl)-D-mannitol hepta potassium salt]	4.81 µM	5.65 µM	–
